# Like-named read-outs stand apart in the source and are kept apart here.
# How the values were obtained:
# [1] = tested on: human multiple myeloma cell line, OPM-2; test: Cell viability assay (OPM-2 10 FBS), CellTiter-Glo; format: cell-based
# Method in brief: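 Serially diluted test compounds are incubated 16 h with cells (3000/well) in RPMI 1640 supplemented with 10% FBS. Viability is then measured by luminescence and IC50 calculated by 4-parameter logistic fit.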
# [2] = molecular target: recombinant human Mcl-1 (residues 171-327) / Bim interaction (Homo sapiens (Human), UniProt Q07820); test: biochemical; format: binding; conditions: 0.1 nM Mcl-1(171-327), 0.05 nM biotin-Bim (51-76); read-out: Mcl-1 HTRF IC50
# [3] = Homo sapiens, OPM-2, 16 h, read-out: OPM-2 10% FBS IC50 IP, OPM-2 cells, 10% FBS, 16 h incubation
# [4] = read-out: OPM-2 10% FBS IC50 IP, OPM-2 cells, 10% FBS, 16 h incubation
# Sequence of recombinant human Mcl-1 (residues 171-327) / Bim interaction (Q07820 171-327): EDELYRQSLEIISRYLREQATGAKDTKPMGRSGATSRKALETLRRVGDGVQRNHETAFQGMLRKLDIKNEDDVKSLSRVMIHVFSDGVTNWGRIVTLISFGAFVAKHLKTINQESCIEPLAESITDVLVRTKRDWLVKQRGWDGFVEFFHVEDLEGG
Structure (SMILES),"IC50 [1, 3] [nM]",IC50 [2] [nM],"IC50 [1, 4] [nM]"
"CCCO[C@]1(CN2CCN3CCOC[C@@H]3C2)/C=C/C[C@H](C)[C@@H](C)S(=O)(=O)NC(=O)c2ccc3c(c2)N(C[C@@H]2CC[C@H]21)C[C@@]1(CCCc2cc(Cl)ccc21)CO3 [Example 351, (1S,3′R,6′R,7′R,8′E,11′S,12′R)-6-chloro-7′-((9aS)-hexahydropyrazino[2,1-c][1,4]oxazin-8(1H)-ylmethyl)-11′,12′-dimethyl-7′-propoxy-3,4-dihydro-2H,15′H-spiro[naphthalene-1,22′-[20]oxa[13]thia[1,14]diazatetracyclo [14.7.2.0~3,6~.0~19,24~]pentacosa[8,16,18,24]tetraen]-15′-one 13′,13′-dioxide]",196,0.121,–
"CCCO[C@]1(CN2CCN(C3COC3)CC2)/C=C/C[C@H](C)[C@@H](C)S(=O)(=O)NC(=O)c2ccc3c(c2)N(C[C@@H]2CC[C@H]21)C[C@@]1(CCCc2cc(Cl)ccc21)CO3 [Example 352, (1S,3′R,6′R,7′R,8′E,11′S,12′R)-6-chloro-11′,12′-dimethyl-7′-((4-(3-oxetanyl)-1-piperazinyl)methyl)-7′-propoxy-3,4-dihydro-2H,15′H-spiro[naphthalene-1,22-[20]oxa[13]thia[1,14]diazatetracyclo [14.7.2.0~3,6~.0~19,24~]pentacosa[8,16,18,24]tetraen]-15′-one 13′,13′-dioxide]",162,0.111,–
"CCCO[C@]1(CN2CCN3CCCC[C@@H]3C2)/C=C/C[C@H](C)[C@@H](C)S(=O)(=O)NC(=O)c2ccc3c(c2)N(C[C@@H]2CC[C@H]21)C[C@@]1(CCCc2cc(Cl)ccc21)CO3 [Example 353, (1S,3′R,6′R,7′R,8′E,11′S,12′R)-6-chloro-11′,12′-dimethyl-7′-((9aR)-octahydro-2H-pyrido[1,2-a]pyrazin-2-ylmethyl)-7′-propoxy-3,4-dihydro-2H,15′H-spiro[naphthalene-1,22′-[20]oxa[13]thia[1,14]diazatetracyclo [14.7.2.0~3,6~.0~19,24~]pentacosa[8,16,18,24]tetraen]-15′-one 13′,13′-dioxide]",–,0.135,186
"CC(C)CO[C@]1(CN2CCN3CCCC[C@@H]3C2)/C=C/C[C@H](C)[C@@H](C)S(=O)(=O)NC(=O)c2ccc3c(c2)N(C[C@@H]2CC[C@H]21)C[C@@]1(CCCc2cc(Cl)ccc21)CO3 [Example 354, (1S,3′R,6′R,7′R,8′E,11′S,12′R)-6-chloro-11′,12′-dimethyl-7′-(2-methylpropoxy)-7′-((9aR)-octahydro-2H-pyrido[1,2-a]pyrazin-2-ylmethyl)-3,4-dihydro-2H,15′H-spiro[naphthalene-1,22′-[20]oxa[13]thia[1,14]diazatetracyclo [14.7.2.0~3,6~.0~19,24~]pentacosa[8,16,18,24]tetraen]-15′-one 13′,13′-dioxide]",450,0.214,–
CC(C)CO[C@]1(CN2CCN(C3COC3)CC2)/C=C/C[C@H](C)[C@@H](C)S(=O)(=O)NC(=O)c2ccc3c(c2)N(C[C@@H]2CC[C@H]21)C[C@@]1(CCCc2cc(Cl)ccc21)CO3 [Example 355],272,0.172,–
"CC(C)CO[C@]1(CN2CCN3CCOC[C@@H]3C2)/C=C/C[C@H](C)[C@@H](C)S(=O)(=O)NC(=O)c2ccc3c(c2)N(C[C@@H]2CC[C@H]21)C[C@@]1(CCCc2cc(Cl)ccc21)CO3 [Example 356, (1S,3′R,6′R,7′R,8′E,11′S,12′R)-6-chloro-7′-((9aS)-hexahydropyrazino[2,1-c][1,4]oxazin-8(1H)-ylmethyl)-11′,12′-dimethyl-7′-(2-methylpropoxy)-3,4-dihydro-2H,15′H-spiro[naphthalene-1,22′-[20]oxa[13]thia[1,14]diazatetracyclo [14.7.2.0~3,6~.0~19,24~]pentacosa[8,16,18,24]tetraen]-15′-one 13′,13′-dioxide]",367,0.11,–
"CO[C@]1(CN2CCN3CCOC[C@@H]3C2)/C=C/C[C@H](C)[C@@H](CCO)S(=O)(=O)NC(=O)c2ccc3c(c2)N(C[C@@H]2CC[C@H]21)C[C@@]1(CCCc2cc(Cl)ccc21)CO3 [Example 357, (1S,3′R,6′R,7′R,8′E,11′S,12′R)-6-chloro-7′-((9aS)-hexahydropyrazino[2,1-c][1,4]oxazin-8(1H)-ylmethyl)-12′-(2-hydroxyethyl)-7′-methoxy-11′-methyl-3 ,4-dihydro-2H,15′H-spiro[naphthalene-1,22′-[20]oxa[13]thia[1,14]diazatetracyclo [14.7.2.0~3,6~.0~19,24~]pentacosa[8,16,18,24]tetraen]-15′-one 13′,13′-dioxide]",118,0.067,–
"CO[C@]1(CN2CCN3CCCC[C@@H]3C2)/C=C/C[C@H](C)[C@@H](CC=O)S(=O)(=O)NC(=O)c2ccc3c(c2)N(C[C@@H]2CC[C@H]21)C[C@@]1(CCCc2cc(Cl)ccc21)CO3 [Example 360, ((1S,3′R,6′R,7′R,8′E,11′S,12′R)-6-Chloro-7′-methoxy-11′-methyl-7′-((9aR)-octahydro-2H-pyrido[1,2-a]pyrazin-2-ylmethyl)-13′,13′-dioxido-15′-oxo-3,4-dihydro-2H-spiro[naphthalene-1,22′-[20]oxa[13]thia[1,14]diazatetracyclo[14.7.2.0-3,6˜.0˜19,24˜]pentacosa[8,16,18,24]tetraen]-12′-yl)acetaldehyde]",2410,1.07,–
"CO[C@@]1(CN2CCN3CCOC[C@@H]3C2)/C=C/C[C@H](C)[C@@H](CCN2CCOCC2)S(=O)(=O)NC(=O)c2ccc3c(c2)N(C[C@@H]2CC[C@H]21)C[C@@]1(CCCc2cc(Cl)ccc21)CO3 [Example 361, (1S,3′R,6′R,7′S,8′E,11′S,12′R)-6-chloro-7′-((9aS)-hexahydropyrazino[2,1-c][1,4]oxazin-8(1H)-ylmethyl)-7′-methoxy-11′-methyl-12′-(2-(4-morpholinyl)ethyl)-3,4-dihydro-2H,15′H-spiro[naphthalene-1,22′-[20]oxa[13]thia[1,14]diazatetracyclo [14.7.2.0~3,6~.0~19,24~]pentacosa[8,16,18,24]tetraen]-15′-one 13′,13′-dioxide]",28,0.101,–
"CO[C@]1(CN2CCN3CCCC[C@@H]3C2)/C=C/C[C@H](C)[C@@H](CCN2CCOCC2)S(=O)(=O)NC(=O)c2ccc3c(c2)N(C[C@@H]2CC[C@H]21)C[C@@]1(CCCc2cc(Cl)ccc21)CO3 [Example 365, (1S,3′R,6′R,7′R,8′E,11′S,12′R)-6-chloro-7′-methoxy-11′-methyl-12′-(2-(4-morpholinyl)ethyl)-7′-((9aR)-octahydro-2H-pyrido[1,2-a]pyrazin-2-ylmethyl)-3,4-dihydro-2H,15′H-spiro[naphthalene-1,22′-[20]oxa[13]thia[1,14]diazatetracyclo [14.7.2.0~3,6~.0~19,24~]pentacosa[8,16,18,24]tetraen]-15′-one 13′,13′-dioxide]",32,0.104,–
"CCCO[C@]1(CN2CCN(C(C)C)[C@H](C)C2)/C=C/C[C@H](C)[C@@H](C)S(=O)(=O)NC(=O)c2ccc3c(c2)N(C[C@@H]2CC[C@H]21)C[C@@]1(CCCc2cc(Cl)ccc21)CO3 [Example 368, (1S,3′R,6′R,7′R,8′E,11′S,12′R)-6-chloro-11′,12′-dimethyl-7′-(((3R)-3-methyl-4-(2-propanyl)-1-piperazinyl)methyl)-7′-propoxy-3,4-dihydro-2H,15′H-spiro[naphthalene-1,22′-[20]oxa[13]thia[1,14]diazatetracyclo [14.7.2.0~3,6~.0~19,24~]pentacosa[8,16,18,24]tetraen]-15′-one 13′,13′-dioxide]",68,0.069,–
"COCC(COC)N1CCN(C[C@]2(OC)/C=C/C[C@H](C)[C@@H](C)S(=O)(=O)NC(=O)c3ccc4c(n3)N(C[C@@H]3CC[C@H]32)C[C@@]2(CCCc3cc(Cl)ccc32)CO4)CC1 [Example 371, (1S,3′R,6′R,7′S,8′E,11′S,12′R)-6-chloro-7′-methoxy-7′-((4-(2-methoxy-1-(methoxymethyl)ethyl)-1-piperazinyl)methyl)-11′,12′-dimethyl-3,4-dihydro-2H,15′H-spiro[naphthalene1,22′-[20]oxa[13]thia[1,14,25]triazatetracyclo [14.7.2.0~3,6~.0~19,24~]pentacosa[8,16,18,24]tetraen]-15′-one 13′,13′-dioxide]",43,0.101,–
"CO[C@@]1(CN2CCN3CCCC[C@@H]3C2)/C=C/C[C@H](C)[C@@H](C)S(=O)(=O)NC(=O)c2ccc3c(n2)N(C[C@@H]2CC[C@H]21)C[C@@]1(CCCc2cc(Cl)ccc21)CO3 [Example 372, (1S,3′R,6′R,7′S,8′E,11′S,12′R)-6-chloro-7′-methoxy-11′,12′-dimethyl-7′-((9aR)-octahydro-2H-pyrido[1,2-a]pyrazin-2-ylmethyl)-3,4-dihydro-2H,15′H-spiro[naphthalene-1,22′-[20]oxa[13]thia[1,14,25]triazatetracyclo [14.7.2.0~3,6~.0~19,24~]pentacosa[8,16,18,24]tetraen]-15′-one 13′,13′-dioxide]",85,0.175,–
"C[C@@H]1[C@@H](C)CCCC2(CN3CCOC[C@H]3CO2)[C@@H]2CC[C@H]2CN2C[C@@]3(CCCc4cc(Cl)ccc43)COc3ccc(cc32)C(=O)NS1(=O)=O (stereo partly drawn) [Example 400, (1S,3′R,6′R,7′S,9a″S,11′S,12′R)-6-chloro-11′,12′-dimethyl-3,4,6″,7″,9″,9a″-hexahydro-1″H,2H,15′H-dispiro[naphthalene-1,22′-[20]oxa[13]thia[1,14]diazatetracyclo[14.7.2.0-3,6˜.0˜19,24˜]pentacosa[16,18,24]triene-7′,3″-[1,4]oxazino[3,4-c][1,4]oxazin]-15′-one 13′,13′-dioxide]",–,1.1,2870
C[C@@H]1[C@@H](C)CCCC2(CN(S(C)(=O)=O)CCO2)[C@@H]2CC[C@H]2CN2C[C@@]3(CCCc4cc(Cl)ccc43)COc3ccc(cc32)C(=O)NS1(=O)=O (stereo partly drawn) [Example 466],–,0.9,446
